From patent US7235588B2, “Method for reducing hypertension and heart failure” (The Research Foundation of State University of New York, priority 2001, dated 2007)
“Also recorded” adds a separate entry of the source. Like-named read-outs stand apart in the source and are kept apart here.

How the values were obtained:
angiotensinogen mRNA = assay: Angiotensinogen mRNA expression in vivo in rat liver (northern blot); settings: daily treatment to achieve 5 μM systemically, 10 days
Procedure: Tyrphostin AG490 was administered to rats in vivo. A subcutaneous pump was surgically placed with a catheter extended intraperitoneally. Rats were daily treated with tyrphostin AG490 to achieve a 5 μM concentration systemically. After 10 days, the animals were euthanized using approved animal protocols and the liver collected to isolate RNA. The isolated RNA was used to perform a northern blot and the nitrocellulose membrane was probed with the rat angiotensinogen cDNA. Loading control was performed using GAPDH as probe.

Jak2 = Jak2 (Homo sapiens, UniProt O60674); settings: cited from earlier work
Jak2, sequence (O60674 whole entry, species assumed, the tested form may be a part): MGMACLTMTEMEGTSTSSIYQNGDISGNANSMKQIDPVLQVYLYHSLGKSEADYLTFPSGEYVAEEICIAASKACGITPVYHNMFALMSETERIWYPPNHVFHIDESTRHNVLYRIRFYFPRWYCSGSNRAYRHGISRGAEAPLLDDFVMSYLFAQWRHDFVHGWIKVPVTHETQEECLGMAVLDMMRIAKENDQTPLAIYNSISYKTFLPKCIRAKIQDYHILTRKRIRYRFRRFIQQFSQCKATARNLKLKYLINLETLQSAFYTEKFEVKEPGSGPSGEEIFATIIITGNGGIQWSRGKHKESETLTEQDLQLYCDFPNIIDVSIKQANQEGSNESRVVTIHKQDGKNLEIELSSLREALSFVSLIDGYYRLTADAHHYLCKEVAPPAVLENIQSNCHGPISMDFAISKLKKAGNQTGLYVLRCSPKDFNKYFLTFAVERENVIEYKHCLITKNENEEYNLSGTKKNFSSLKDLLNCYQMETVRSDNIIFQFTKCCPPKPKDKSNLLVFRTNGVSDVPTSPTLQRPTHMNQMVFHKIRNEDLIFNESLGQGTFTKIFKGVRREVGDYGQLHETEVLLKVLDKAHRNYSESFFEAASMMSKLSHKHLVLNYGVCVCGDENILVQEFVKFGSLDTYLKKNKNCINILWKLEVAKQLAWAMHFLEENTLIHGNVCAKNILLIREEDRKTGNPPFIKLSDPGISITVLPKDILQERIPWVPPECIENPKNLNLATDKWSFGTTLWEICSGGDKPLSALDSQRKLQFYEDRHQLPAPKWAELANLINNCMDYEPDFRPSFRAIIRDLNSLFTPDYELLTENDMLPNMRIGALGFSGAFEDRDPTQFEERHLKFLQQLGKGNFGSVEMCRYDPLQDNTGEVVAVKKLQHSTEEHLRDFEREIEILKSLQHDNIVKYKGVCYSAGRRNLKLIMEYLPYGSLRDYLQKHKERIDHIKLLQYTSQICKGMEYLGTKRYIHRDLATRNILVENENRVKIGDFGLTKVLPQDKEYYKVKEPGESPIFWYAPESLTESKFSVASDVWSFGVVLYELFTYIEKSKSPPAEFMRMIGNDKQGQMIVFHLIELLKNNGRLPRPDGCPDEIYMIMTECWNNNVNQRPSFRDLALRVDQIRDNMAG

rat hearts [1] = assay: Myocardial infarct size (triphenyl tetrazolium staining) after ischemia/reperfusion; settings: FIG. 4B
Procedure: To gain insight into the physiological basis for cardioprotection afforded by tyrphostin AG490, the extent of cardiomyocyte infarct size and apoptosis were measured. On termination of treatment with tyrphostin AG490, hearts were immersed in 1% triphenyl tetrazolium solution in phosphate buffer (Na2HPO4 88 mmol/l, NaH2PO4 1.8 mmol/l) for 10 min. at 37° C. and stored at −70° C. for processing. Frozen hearts (ventricular tissue) were sliced transversely in a plane perpendicular to the apicobasal axis into 0.5 mm thick sections, blotted dry, placed between microscope slides, and scanned on a Hewlett-Packard Scanjet 5 p single-pass flatbed scanner. With the NIH 1.61 image processing software, each digitized image was subjected to equivalent degrees of background subtraction, brightness, and contrast enhancement for improved clarity and distinctness. Risk (equivalent to total left ventricular muscle mass) and infarct zones of each slice were traced, and the respective areas were calculated in terms of pixels. The weight of each slice was then recorded to facilitate the expression of total and infarct masses of each slice in grams. The risk and infarct volumes of each slice in cubic centimeters were then calculated on the basis of slice weight to correct for any errors due to nonuniformity of heart slice thickness. […]

[2] = tested on: St-domain/STAT binding activity; assay: Electrophoretic gel mobility-shift assay of St-domain/STAT binding in heart nuclear extracts; design: species or system rat; settings: hearts, 30 min ischemia/120 min reperfusion
Description: Nuclear extracts were examined in hearts subjected to global ischemia to determine whether there is enhanced STAT binding activity to the St domain of the angiotensinogen promoter. The nuclear heart extracts were examined by the electrophoretic gel mobility-shift assay that exployed the use of the chemically synthesized oligonucleotide sequence of the St domain. The St-domain DNA probe for protein binding was a double-stranded oligonucleotide containing the sequence 5′-GGGTtcCTGGAAGGG-3′ SEQ. ID NO: 2, and complementary strand 5′-CCCTTCCAGgaACCC-3′ SEQ. ID NO: 3, respectively. These probes were end-labeled by polynucleotide kinase and [γ-^32P]ATP. Binding reaction mixture containing 0.5 ng of labeled DNA (1,000 cpm), 2 μg of poly(dI-C), and 1-12 μg of protein in buffer containing 20 mM Hepes, 3% glycerol, 1.5 mM MgCl2, 1 mM DTT, 2 mM EDTA and 50 mM KCl, pH 7.5 was allowed to incubate at 4° C. for 30 min. The reactions were analyzed by electrophoresis on 8% polyacrylanide gel in 0.375× TBE ([…] Tris borate, pH 8.7 and 1.0 mM EDTA). After electrophoresis, the gels were dried and subjected to autoradiography. […] (FIG. 5B). The activation of STATs and the consequent binding to the St-domain in the angiotensinogen promoter accounts for the increase in transcription of angiotensinogen mRNA. […]

rat hearts [3] = assay: Myocardial function of spontaneously beating working hearts subjected to ischemia/reperfusion
cardiomyocytes = assay: Cardiomyocyte apoptosis by TUNEL after ischemia/reperfusion; design: species or system rat; settings: FIG. 4C
Procedure: Immunohistochemical detection of apoptotic cells was carried out by use of terminal dUTP nick end-labeling (TUNEL), in which residues of digoxigenin-labeled dUTP are catalytically incorporated into the DNA by terminal deoxynucleotidyl transferase II. The cells were incubated with a sheep polyclonal anti-digoxigenin antibody followed by a FITC-conjugated rabbit anti-sheep IgG as a secondary antibody. The heart sections were washed in PBS 3 times, blocked with normal rabbit serum, and incubated with mouse monoclonal antibody recognizing cardiac myosin heavy chain (Biogenesis Ltd) followed by staining with TRIRC-conjugated rabbit anti-mouse IgG ([…] dilution, Dalco, Japan). The fluorescence staining was viewed with a confocal laser microscope (Olympus Co). The apoptoic cells were counted and expressed as percentage of total myocyte population. Ischemia was induced by a modified Langendorf-reperfusion method in rat hearts. Hearts from adult male rats were randomly divided into 4 groups and subjected to ischemia/reperfusion. In the ischemic group, hearts were perfused with Krebs-Henseleit buffer for 60 minutes, followed by 30 minutes of global ischemia. In the ischemic/reperfused group, hearts were perfused for 60 minutes, followed by 30 minutes of global ischemia and 120 minutes of reperfusion. Control group hearts were perfused for the same lengths of time.

[4] = first 60 min of reperfusion, treated groups (5 and 50 μmol/L)

Compound: N#C/C(=C\c1ccc(O)c(O)c1)C(=O)NCc1ccccc1 [tyrphostin AG490]
- expression of angiotensinogen gene product mRNA (angiotensinogen mRNA): abolished the expression of angiotensinogen gene product mRNA; also recorded: attenuation of angiotensinogen mRNA expression
- Jak2 inhibition, selectivity (Jak2; listed as AG490): selectively inhibits Jak2
- Jak2 inhibition, selectivity (Jak2; listed as Tyrphostin AG490): selective, specific, and potent
- myocardial infarct size (rat hearts [1]): reduced myocardial infarct size; also recorded: reduction of infarct size
- St-domain/STAT binding activity (STAT/DNA complex formation) [2]: total loss of STAT/DNA complex formation; also recorded: reduction of St-domain/STAT binding activity
- cardioprotection (developed pressure and dP/dt) (rat hearts [3]; 5 μmol/L): able to provide cardioprotection to approximately the same degree
- Developed pressure (rat hearts [3]; 5 μmol/L, 60 min of reperfusion (R-60)): 86±2.5 mm Hg
- Developed pressure (rat hearts [3]; 5 μmol/L, 90 min of reperfusion (R-90)): 69±5 mm HG
- Developed pressure (rat hearts [3]; 5 μmol/L, 120 min of reperfusion (R-120)): 60.85±4 mm Hg
- dp/dt (rat hearts [3]; 5 μmol/L, R-30): 3818±49.46
- dp/dt (rat hearts [3]; 5 μmol/L, R-60): 3362±53.14
- dp/dt (rat hearts [3]; 5 μmol/L, R-90): 2840±88
- dp/dt (rat hearts [3]; 5 μmol/L, R-120): 2552±58.9
- baseline value for dP/dt (rat hearts [3]; 50 μmol/L): increased slightly
- cardioprotection (developed pressure and dP/dt) (rat hearts [3]; 50 μmol/L): able to provide cardioprotection to approximately the same degree
- Developed pressure (rat hearts [3]; 50 μmol/L, 60 min of reperfusion (R-60)): 86±4.8 mm Hg
- Developed pressure (rat hearts [3]; 50 μmol/L, 90 min of reperfusion (R-90)): 72.7±5.7 mm HG
- Developed pressure (rat hearts [3]; 50 μmol/L, 120 min of reperfusion (R-120)): 53.75±7 mm Hg
- dp/dt (rat hearts [3]; 50 μmol/L, R-30): 4156±238
- dp/dt (rat hearts [3]; 50 μmol/L, R-60): 3840±140
- dp/dt (rat hearts [3]; 50 μmol/L, R-90): 3194.7±228
- dp/dt (rat hearts [3]; 50 μmol/L, R-120): 2626±269
- dP/dt and developed pressure versus untreated group (rat hearts [3]; all treated groups (5 and 50 μmol/L)): significantly higher
- Developed pressure (rat hearts [3]; [4]): minimally lowered
- dP/dt value (rat hearts [3]; [4]): not lowered
- apoptotic cell death of cardiomyocytes (cardiomyocytes): marked lowering of apoptotic cell death; also recorded: reduction of apoptosis of cardiomyocytes
